The values that follow come from patent US20260184691A1, “INHIBITORS AND DEGRADERS OF PIP4K PROTEIN” (Larkspur Biosciences, Inc., priority 2022, published 2026).

The target in the test is T1, Human PIP4K2C (Homo sapiens, UniProt Q8TBX8).
T1 construct: purchased Eurofins DiscoverX 87-0007-1094
T1 sequence (Q8TBX8 1-421): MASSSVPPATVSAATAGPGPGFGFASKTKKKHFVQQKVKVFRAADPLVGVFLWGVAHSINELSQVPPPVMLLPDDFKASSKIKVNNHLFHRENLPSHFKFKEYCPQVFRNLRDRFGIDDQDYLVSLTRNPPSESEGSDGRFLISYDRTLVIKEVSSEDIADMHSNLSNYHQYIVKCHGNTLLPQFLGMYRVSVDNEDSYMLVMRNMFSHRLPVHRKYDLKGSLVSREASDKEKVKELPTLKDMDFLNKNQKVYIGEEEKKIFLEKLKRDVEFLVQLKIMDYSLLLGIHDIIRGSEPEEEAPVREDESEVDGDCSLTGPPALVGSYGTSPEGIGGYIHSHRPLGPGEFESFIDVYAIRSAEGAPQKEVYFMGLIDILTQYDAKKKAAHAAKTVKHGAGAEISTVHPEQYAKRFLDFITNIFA
As to the kind of experiment: Enzyme binding assay (KINOMEscan), active site-directed competition binding. The following applies: 11-point dose response, duplicate, top concentration 5 micromolar; read-out: Pip4k2c Kd: IC50. As to the method:
PIP4K2C binding constants disclosed herein were determined using the proprietary Human PIP4K2C binding assay (Catalog number 87-0007-1094, Eurofins DiscoverX, San Diego, CA). This assay measures active site-directed competition binding to an immobilized ligand (see https://doi.org/10.1038/nbt1068, herein incorporated by reference in its entirety). Experiments were conducted using an 11-point dose response curve, in duplicate, with a top starting concentration of 5 micromolar; the Levenberg-Marquardt algorithm was used to fit a Hill equation to dose-response data to calculate IC50 values (see Table 5).

For `O=C1CCCN1c1cncc(Nc2ncc(Cl)c(N3CCOCC3)n2)c1` [Compound 107, 1-(5-((5-chloro-4-morpholinopyrimidin-2-yl)amino)pyridin-3-yl)pyrrolidin-2-one], the half-maximal inhibitory concentration (IC50) was less than 500 nM.
As for `O=C1CCCN1c1cncc(Nc2ncc(Cl)c(-c3ccc(F)cc3F)n2)c1` [Compound 108, 1-(5-((5-chloro-4-(2,4-difluorophenyl)pyrimidin-2-yl)amino)pyridin-3-yl)pyrrolidin-2-one], the figure is less than 500 nM; as for `CCCCNC(=O)C1CCCN(c2nc(Nc3cncc(N4CCCC4=O)c3)ncc2Cl)C1` (centres unmarked) [Compound 109, N-butyl-1-(5-chloro-2-((5-(2-oxopyrrolidin-1-yl)pyridin-3-yl)amino)pyrimidin-4-yl)piperidine-3-carboxamide], less than 500 nM.
Take `CCCCC(=O)NC1CCCN(c2nc(Nc3cncc(N4CCCC4=O)c3)ncc2Cl)C1` (centres unmarked) [Compound 110, N-(1-(5-chloro-2-((5-(2-oxopyrrolidin-1-yl)pyridin-3-yl)amino)pyrimidin-4-yl)piperidin-3-yl)pentanamide]: the IC50 was less than 500 nM.
Consider `CC(C)c1cc(-c2nc(Nc3cncc(N4CCCC4=O)c3)ncc2Cl)ccn1` [Compound 111, 1-(5-((5-chloro-4-(2-isopropylpyridin-4-yl)pyrimidin-2-yl)amino)pyridin-3-yl)pyrrolidin-2-one], for which the IC50 was less than 500 nM.
Consider `O=C1CCCN1c1cncc(Nc2ncc(Cl)c(-c3ccc(F)cc3Cl)n2)c1` [Compound 112, 1-(5-((5-chloro-4-(2-chloro-4-fluorophenyl)pyrimidin-2-yl)amino)pyridin-3-yl)pyrrolidin-2-one], for which the IC50 is less than 500 nM.
As for `Cc1cc(F)ccc1-c1nc(Nc2cncc(N3CCCC3=O)c2)ncc1Cl` [Compound 113, 1-(5-((5-chloro-4-(4-fluoro-2methylphenyl)pyrimidin-2-yl)amino)pyridin-3-yl)pyrrolidin-2-one], the figure is less than 500 nM.
As for `CC1CN(c2nc(Nc3cncc(N4CCCC4=O)c3)ncc2Cl)CC(C)O1` (centres unmarked) [Compound 114, 1-(5-((5-chloro-4-(2,6-dimethylmorpholino)pyrimidin-2-yl)amino)pyridin-3-yl)pyrrolidin-2-one], the figure is less than 500 nM; as for `CC1CC(C)CN(c2nc(Nc3cncc(N4CCCC4=O)c3)ncc2Cl)C1` (centres unmarked) [Compound 115, 1-(5-((5-chloro-4-(3,5-dimethylpiperidin-1-yl)pyrimidin-2-yl)amino)pyridin-3-yl)pyrrolidin-2-one], less than 500 nM.
Turning to `Cc1ccccc1-c1nc(Nc2cncc(N3CCCC3=O)c2)ncc1Cl` [Compound 116, 1-(5-((5-chloro-4-(o-tolyl)pyrimidin-2-yl)amino)pyridin-3-yl)pyrrolidin-2-one], the half-inhibitory concentration (IC50) was less than 500 nM.
In the case of `O=C1CCCN1c1cncc(Nc2cc(-c3ccccc3)c(Cl)cn2)c1` [Compound 117, 1-(5-((5-chloro-4-phenylpyridin-2-yl)amino)pyridin-3-yl)pyrrolidin-2-one], the IC50 was less than 500 nM.
In the case of `O=C1CCCN1c1cncc(Nc2ncc(Cl)c(-c3ccc(F)cc3)n2)c1` [Compound 118, 1-(5-((5-chloro-4-(4-fluorophenyl)pyrimidin-2-yl)amino)pyridin-3-yl)pyrrolidin-2-one] it was less than 500 nM; in that of `O=C1CCCN1c1cncc(Nc2ncc(Cl)c(N3CCCCC3C(F)(F)F)n2)c1` (centres unmarked) [Compound 119, 1-(5-((5-chloro-4-(2-(trifluoromethyl)piperidin-1-yl)pyrimidin-2-yl)amino)pyridin-3-yl)pyrrolidin-2-one], less than 500 nM.
In the case of `O=C1CCCN1c1cncc(Nc2ncc(Cl)c(N3CCC(c4ccccn4)C3)n2)c1` (centres unmarked) [Compound 120, 1-(5-((5-chloro-4-(3-(pyridin-2-yl)pyrrolidin-1-yl)pyrimidin-2-yl)amino)pyridin-3-yl)pyrrolidin-2-one] it was less than 500 nM; in that of `O=C1CCCN1c1cncc(Nc2ncc(Cl)c(N3CCC(N4CCCCC4)C3)n2)c1` (centres unmarked) [Compound 121, 1-(5-((5-chloro-4-(3-(piperidin-1-yl)pyrrolidin-1-yl)pyrimidin-2-yl)amino)pyridin-3-yl)pyrrolidin-2-one], less than 500 nM.
As for `O=C1CCCN1c1cncc(Nc2ncc(Cl)c(-c3cccc(N4CCC4)c3)n2)c1` [Compound 122, 1-(5-((4-(3-(azetidin-1-yl)phenyl)-5-chloropyrimidin-2-yl)amino)pyridin-3-yl)pyrrolidin-2-one], the figure is less than 500 nM; as for `O=C1CCCN1c1cncc(Nc2ncc(Cl)c(N3CCCC(C4CCC4)C3)n2)c1` (centres unmarked) [Compound 123, 1-(5-((5-chloro-4-(3-cyclobutylpiperidin-1-yl)pyrimidin-2-yl)amino)pyridin-3-yl)pyrrolidin-2-one], less than 500 nM.
Consider `O=C1CCCN1c1cncc(Nc2ncc(Cl)c(N3CCCC(C4CC4)C3)n2)c1` (centres unmarked) [Compound 126, 1-(5-((5-chloro-4-(3-cyclopropylpiperidin-1-yl)pyrimidin-2-yl)amino)pyridin-3-yl)pyrrolidin-2-one], for which the concentration for half-maximal inhibition (IC50) is less than 500 nM.
As for `O=C1CCCN1c1cncc(Nc2ncc(Cl)c(N3CCCc4ccccc43)n2)c1` [Compound 127, 1-(5-((5-chloro-4-(3,4-dihydroquinolin-1(2H)-yl)pyrimidin-2-yl)amino)pyridin-3-yl)pyrrolidin-2-one], the figure is less than 500 nM; as for `O=C1CCCN1c1cncc(Nc2ncc(Cl)c(N3CCc4ccccc4C3)n2)c1` [Compound 128, 1-(5-((5-chloro-4-(3,4-dihydroisoquinolin-2(1H)-yl)pyrimidin-2-yl)amino)pyridin-3-yl)pyrrolidin-2-one], less than 500 nM; as for `O=C1CCCN1c1cncc(Nc2ncc(Cl)c(N3CCc4ccccc43)n2)c1` [Compound 129, 1-(5-((5-chloro-4-(indolin-1-yl)pyrimidin-2-yl)amino)pyridin-3-yl)pyrrolidin-2-one], less than 500 nM.
As for `O=C1CCCN1c1cncc(Nc2ncc(Cl)c(N3Cc4ccccc4C3)n2)c1` [Compound 130, 1-(5-((5-chloro-4-(isoindolin-2-yl)pyrimidin-2-yl)amino)pyridin-3-yl)pyrrolidin-2-one], the figure is less than 500 nM; as for `O=C1CCCN1c1cncc(Nc2ncc(Cl)c(N3CCCC(C4CCCC4)C3)n2)c1` (centres unmarked) [Compound 131, 1-(5-((5-chloro-4-(3-cyclopentylpiperidin-1-yl)pyrimidin-2-yl)amino)pyridin-3-yl)pyrrolidin-2-one], less than 500 nM.
In the case of `CN1CCC2(CC1)CCN(c1cncc(Nc3ncc(Cl)c(-c4cccc(-c5ccccc5)c4)n3)c1)C2=O` [Compound 132, 2-[5-[[5-chloro-4-(3-phenylphenyl)pyrimidin-2-yl]amino]-3-pyridyl]-8-methyl-2,8-diazaspiro[4.5]decan-1-one] it was less than 500 nM; in that of `CC(=O)N1CCC2(CC1)CCN(c1cncc(Nc3ncc(Cl)c(-c4cccc(-c5ccccc5)c4)n3)c1)C2=O` [Compound 133, 8-acetyl-2-[5-[[5-chloro-4-(3-phenylphenyl)pyrimidin-2-yl]amino]-3-pyridyl]-2,8-diazaspiro[4.5]decan-1-one], less than 500 nM; in that of `O=C1CCCN1c1cncc(Nc2ncc(Cl)c(N3CCOC(c4ccccn4)C3)n2)c1` (centres unmarked) [Compound 134, 1-[5-[[5-chloro-4-[2-(2-pyridyl)morpholin-4-yl]pyrimidin-2-yl]amino]-3-pyridyl]pyrrolidin-2-one], less than 500 nM.
In the case of `O=C1CCCN1c1cncc(Nc2ncc(Cl)c(C3CCCN(C4CCCC4)C3)n2)c1` (centres unmarked) [Compound 135, 1-(5-((5-chloro-4-(1-cyclopentylpiperidin-3-yl)pyrimidin-2-yl)amino)pyridin-3-yl)pyrrolidin-2-one], the IC50 was less than 500 nM.
As for `O=C1CCCN1c1cncc(Nc2ncc(Cl)c(N3CCC(C4CCCC4)C3)n2)c1` (centres unmarked) [Compound 136, 1-(5-((5-chloro-4-(3-cyclopentylpyrrolidin-1-yl)pyrimidin-2-yl)amino)pyridin-3-yl)pyrrolidin-2-one], the figure is less than 500 nM; as for `O=C1CCCN1c1cncc(Nc2ncc(Cl)c(-c3cnn(C4CCC4)c3)n2)c1` [Compound 137, 1-(5-((5-chloro-4-(1-cyclobutyl-1H-pyrazol-4-yl)pyrimidin-2-yl)amino)pyridin-3-yl)pyrrolidin-2-one], less than 500 nM.
With `O=C1CCCN1c1cncc(Nc2ncc(Cl)c(-c3cnn(C4CCCC4)c3)n2)c1` [Compound 138, 1-[5-[[5-chloro-4-(1-cyclopentylpyrazol-4-yl)pyrimidin-2-yl]amino]-3-pyridyl]pyrrolidin-2-one], the IC50 was less than 500 nM.
As for `O=C1CCCN1c1cncc(Nc2ncc(Cl)c(-c3cnn(C4CCCCC4)c3)n2)c1` [Compound 139, 1-[5-[[5-chloro-4-(1-cyclohexylpyrazol-4-yl)pyrimidin-2-yl]amino]-3-pyridyl]pyrrolidin-2-one], the IC50 was less than 500 nM.
As for `O=C1CCCN1c1cncc(Nc2ncc(Cl)c(-c3cnn(-c4ccccc4)c3)n2)c1` [Compound 140, 1-(5-((5-chloro-4-(1-phenyl-1H-pyrazol-4-yl)pyrimidin-2-yl)amino)pyridin-3-yl)pyrrolidin-2-one], the figure is less than 500 nM.

The IC50 is the concentration at which inhibition is half-maximal.
